From US8802720B2, “Acylamino-substituted fused cyclopentanecarboxylic acid derivatives and their use as pharmaceuticals” (SANOFI, priority 2008, dated 2014)

target: human Edg-2 receptor (LPA1 receptor) (Homo sapiens, UniProt Q92633); assay: Edg-2 receptor inhibition by FLIPR calcium fluorescence measurement (LPA-mediated calcium liberation); format: cell-based; settings: CHO cells stably overexpressing human Edg-2 receptor; LPA 18:1 100 nM; fluo-4 fluorescence; triplicate; read-out: Inhibitory concentrations IC50 for inhibition of the Edg-2 receptor
How it was run: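 CHO cells stably overexpressing human Edg-2 were fluo-4 loaded and pre-incubated ~5 min with compound (≤0.3% DMSO) in HBSS/HEPES/probenecid, pH 7.5. Then LPA 18:1 at 100 nM final was added. Peak calcium fluorescence over ~3 min, baseline-corrected versus DMSO, gave % inhibition in triplicate and IC50.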

human Edg-2 receptor (LPA1 receptor), sequence (Q92633 whole entry): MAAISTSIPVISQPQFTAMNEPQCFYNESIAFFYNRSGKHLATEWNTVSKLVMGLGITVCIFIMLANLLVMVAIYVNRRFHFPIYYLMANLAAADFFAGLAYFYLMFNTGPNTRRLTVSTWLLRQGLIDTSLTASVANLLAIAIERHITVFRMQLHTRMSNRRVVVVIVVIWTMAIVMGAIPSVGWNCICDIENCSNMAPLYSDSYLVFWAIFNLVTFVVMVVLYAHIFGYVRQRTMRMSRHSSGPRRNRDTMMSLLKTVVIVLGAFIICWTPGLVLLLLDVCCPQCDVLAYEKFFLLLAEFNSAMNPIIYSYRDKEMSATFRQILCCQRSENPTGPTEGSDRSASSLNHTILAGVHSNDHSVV

Row | IC50 | SMILES
1 | 1000 to 30000 nM | COc1ccc(C(=O)NC2(C(=O)O)Cc3ccccc3C2)cc1NCc1cccc(Cl)c1 [Example 123]
2 | 100 to 1000 nM | COc1ccc(C(=O)NC2(C(=O)O)Cc3ccccc3C2)cc1NCC(C)c1ccccc1 (stereo not shown) [Example 124]
3 | 1000 to 30000 nM | COc1ccc(C(=O)NC2(C(=O)O)Cc3ccccc3C2)cc1OCc1cccc(C)c1 [Example 126]
4 | < 100 nM | COc1ccc(C(=O)NC2(C(=O)O)Cc3ccccc3C2)cc1OCCc1cccc(C(F)(F)F)c1 [Example 127, 2-{4-methoxy-3-[2-(3-trifluoromethyl-phenyl)-ethoxy]-benzoylamino}-indane-2-carboxylic acid]
5 | 100 to 1000 nM | O=C(NC1(C(=O)O)Cc2ccccc2C1)c1ccc(Cl)c(OCCc2cccc(C(F)(F)F)c2)c1 [Example 128]
6 | 100 to 1000 nM | Cc1cccc(CCOc2cc(C(=O)NC3(C(=O)O)Cc4ccccc4C3)ccc2C)c1 [Example 129]
7 | < 100 nM | COc1ccc(C(=O)NC2(C(=O)O)Cc3ccccc3C2)cc1OCCc1ccccc1 [Example 130]
8 | < 100 nM | COc1ccc(C(=O)NC2(C(=O)O)Cc3ccccc3C2)cc1OCCc1cccc(F)c1 [Example 131]
9 | < 100 nM | COc1ccc(C(=O)NC2(C(=O)O)Cc3ccccc3C2)cc1OCCc1cccc(Cl)c1 [Example 132]
10 | 100 to 1000 nM | COc1cccc(CCOc2cc(C(=O)NC3(C(=O)O)Cc4ccccc4C3)ccc2OC)c1 [Example 133]
11 | 1000 to 30000 nM | COc1ccc(C(=O)NC2(C(=O)O)Cc3ccccc3C2)cc1OCCc1ccccc1C [Example 134]
12 | 1000 to 30000 nM | COc1ccc(C(=O)NC2(C(=O)O)Cc3ccccc3C2)cc1OCCc1ccc(C)cc1 [Example 135]
13 | 1000 to 30000 nM | COc1ccc(C(=O)NC2(C(=O)O)Cc3ccccc3C2)cc1OCCc1ccc(F)cc1 [Example 136]
14 | 1000 to 30000 nM | COc1ccc(CCOc2cc(C(=O)NC3(C(=O)O)Cc4ccccc4C3)ccc2OC)cc1 [Example 137]
15 | 1000 to 30000 nM | COc1ccccc1CCOc1cc(C(=O)NC2(C(=O)O)Cc3ccccc3C2)ccc1OC [Example 138]
16 | 100 to 1000 nM | COc1ccc(C(=O)NC2(C(=O)O)Cc3ccccc3C2)cc1OCCc1ccccc1F [Example 139]
17 | 1000 to 30000 nM | COc1ccc(C(=O)NC2(C(=O)O)Cc3ccccc3C2)cc1OCCc1cc(C)ccc1C [Example 140]
18 | 1000 to 30000 nM | Cc1cccc(CCOc2cccc(C(=O)NC3(C(=O)O)Cc4ccccc4C3)c2)c1 [Example 141]
19 | 1000 to 30000 nM | COc1ccc(C(=O)NC2(C(=O)O)Cc3ccccc3C2)cc1OC(C)Cc1ccccc1 (stereo not shown) [Example 142]
20 | < 100 nM | COc1ccc(C(=O)NC2(C(=O)O)Cc3ccccc3C2)cc1OCCc1cccc(Br)c1 [Example 143]
21 | < 100 nM | COc1ccc(C(=O)NC2(C(=O)O)Cc3ccccc3C2)cc1OCC(C)c1ccccc1 (stereo not shown) [Example 144]
22 | 100 to 1000 nM | Cc1cccc(CCOc2cc(C(=O)NC3(C(=O)O)Cc4ccccc4C3)ccc2F)c1 [Example 145]
23 | 100 to 1000 nM | COc1ccc(C(=O)NC2(C(=O)O)Cc3ccccc3C2)cc1OCCc1ccsc1 [Example 146]
24 | 100 to 1000 nM | COc1ccc(C(=O)NC2(C(=O)O)Cc3ccccc3C2)cc1OCCc1cccs1 [Example 147]
25 | 1000 to 30000 nM | COc1ccc(C(=O)NC2(C(=O)O)Cc3ccccc3C2)cc1OCCc1ccccn1 [Example 148]
26 | < 100 nM | COc1ccc(C(=O)NC2(C(=O)O)Cc3ccccc3C2)cc1OCCc1ccccc1Cl [Example 149]
27 | 1000 to 30000 nM | COc1ccc(C(=O)NC2(C(=O)O)Cc3ccccc3C2)cc1OCCC1CCCC1 [Example 150]
28 | 1000 to 30000 nM | COc1ccc(C(=O)NC2(C(=O)O)Cc3ccccc3C2)cc1OCCCc1ccccc1 [Example 151]

Row | IC50 | SMILES
29 | < 100 nM | COc1ccc(C(=O)NC2(C(=O)O)Cc3ccccc3C2)cc1OCCc1c(F)cccc1Cl [Example 152]
30 | 100 to 1000 nM | COc1ccc(C(=O)NC2(C(=O)O)Cc3ccccc3C2)cc1OCCc1cccc(Cl)c1F [Example 153]
31 | < 100 nM | COc1ccc(C(=O)NC2(C(=O)O)Cc3ccccc3C2)cc1OCCc1cc(C(F)(F)F)ccc1F [Example 154]
32 | 1000 to 30000 nM | COc1ccc(C(=O)NC2(C(=O)O)Cc3ccccc3C2)cc1OCCc1cccc(C(F)(F)F)c1F [Example 155]
33 | < 100 nM | COc1ccc(C(=O)NC2(C(=O)O)Cc3ccc(Br)cc3C2)cc1OCCc1cccc(C)c1 (stereo not shown) [Example 156, 5-Bromo-2-[4-methoxy-3-(2-m-tolyl-ethoxy)-benzoylamino]-indane-2-carboxylic acid]
34 | < 100 nM | COc1ccc(C(=O)NC2(C(=O)O)Cc3ccc(F)cc3C2)cc1OCCc1cccc(C)c1 (stereo not shown) [Example 157, 5-Fluoro-2-[4-methoxy-3-(2-m-tolyl-ethoxy)-benzoylamino]-indane-2-carboxylic acid]
35 | 100 to 1000 nM | COc1ccc(C(=O)NC2(C(=O)O)Cc3cc(C)c(C)cc3C2)cc1OCCc1cccc(C)c1 [Example 158, 2-[4-Methoxy-3-(2-m-tolyl-ethoxy)-benzoylamino]-5,6-dimethyl-indane-2-carboxylic acid]
36 | < 100 nM | COc1ccc2c(c1)CC(NC(=O)c1ccc(OC)c(OCCc3cccc(C)c3)c1)(C(=O)O)C2 (stereo not shown) [Example 159, 5-Methoxy-2-[4-methoxy-3-(2-m-tolyl-ethoxy)-benzoylamino]-indane-2-carboxylic acid]
37 | 1000 to 30000 nM | COc1cc(C(=O)NC2(C(=O)O)Cc3ccccc3C2)ccc1OCCc1cccc(Cl)c1 [Example 161, 2-{4-[2-(3-Chloro-phenyl)-ethoxy]-3-methoxy-benzoylamino}-indane-2-carboxylic acid]
38 | 1000 to 30000 nM | COc1cc(C(=O)NC2(C(=O)O)Cc3ccccc3C2)ccc1OCCc1ccccc1Cl [Example 162, 2-{4-[2-(2-Chloro-phenyl)-ethoxy]-3-methoxy-benzoylamino}-indane-2-carboxylic acid]
39 | 100 to 1000 nM | Cc1cccc(CCOc2cc(C(=O)NC3(C(=O)O)Cc4ccccc4C3)ccc2N)c1 [Example 163, 2-[4-Amino-3-(2-m-tolyl-ethoxy)-benzoylamino]-indane-2-carboxylic acid]
40 | < 100 nM | CNc1ccc(C(=O)NC2(C(=O)O)Cc3ccccc3C2)cc1OCCc1cccc(C)c1 [Example 164, 2-[4-Methylamino-3-(2-m-tolyl-ethoxy)-benzoylamino]-indane-2-carboxylic acid]
41 | 100 to 1000 nM | Cc1cccc(CCOc2cc(C(=O)NC3(C(=O)O)Cc4ccccc4C3)ccc2N(C)C)c1 [Example 165, 2-[4-Dimethylamino-3-(2-m-tolyl-ethoxy)-benzoylamino]-indane-2-carboxylic acid]
42 | 100 to 1000 nM | Cc1cccc(CCOc2cc(C(=O)NC3(C(=O)O)Cc4ccccc4C3)ccc2NC(C)C)c1 [Example 166, 2-[4-Isopropylamino-3-(2-m-tolyl-ethoxy)-benzoylamino]-indane-2-carboxylic acid]
43 | 1000 to 30000 nM | COc1ccc(C(=O)NC2(C(=O)O)Cc3ccccc3C2)cc1OCC(O)c1ccccc1F (stereo not shown) [Example 167, 2-{3-[2-(2-Fluoro-phenyl)-2-hydroxy-ethoxy]-4-methoxy-benzoylamino}-indane-2-carboxylic acid]
44 | < 100 nM | Cc1cccc(CCOc2cc(C(=O)NC3(C(=O)O)Cc4ccccc4C3)ccc2C#N)c1 [Example 168, 2-[4-Cyano-3-(2-m-tolyl-ethoxy)-benzoylamino]-indane-2-carboxylic acid]
45 | 100 to 1000 nM | COc1ccc(C(=O)NC2(C(=O)O)Cc3ccccc3C2)cc1CCCc1ccccc1 [Example 169, 2-[4-Methoxy-3-(3-phenyl-propyl)-benzoylamino]-indane-2-carboxylic acid]
46 | < 100 nM | COc1ccc(C(=O)NC2(C(=O)O)Cc3ccccc3C2)cc1NCCc1cccc(C)c1 [Example 171, 2-[4-Methoxy-3-(2-m-tolyl-ethylamino)-benzoylamino]-indane-2-carboxylic acid]
47 | 1000 to 30000 nM | COc1ccc(C(=O)NC2(C(=O)O)Cc3ccccc3C2)cc1N(C)CCc1cccc(C)c1 [Example 172, 2-{4-Methoxy-3-[methyl-(2-m-tolyl-ethyl)-amino]-benzoylamino}-indane-2-carboxylic acid]
48 | 1000 to 30000 nM | Cc1cccc(CCNc2cc(C(=O)NC3(C(=O)O)Cc4ccccc4C3)ccc2C#N)c1 [Example 173, 2-[4-Cyano-3-(2-m-tolyl-ethylamino)-benzoylamino]-indane-2-carboxylic acid]
49 | 1000 to 30000 nM | N#Cc1ccc(C(=O)NC2(C(=O)O)Cc3ccccc3C2)cc1N1CCC(c2ccccc2)C1 (stereo not shown) [Example 174, 2-[4-Cyano-3-[3-phenyl-pyrrolidin-1-yl)-benzoylamino]-indane-2-carboxylic acid]
50 | 1000 to 30000 nM | N#Cc1ccc(C(=O)NC2(C(=O)O)Cc3ccccc3C2)cc1NCCc1ccccc1F [Example 175, 2-{4-Cyano-3-[2-(2-fluoro-phenyl)-ethylamino]-benzoylamino}-indane-2-carboxylic acid]
51 | < 100 nM | Cc1ccc(C(=O)NC2(C(=O)O)Cc3ccccc3C2)cc1OCCc1cccc(Cl)c1 [Example 176, 2-{3-[2-(3-Chloro-phenyl)-ethoxy]-4-methyl-benzoylamino}-indane-2-carboxylic acid]
52 | 100 to 1000 nM | Cc1ccc(C(=O)NC2(C(=O)O)Cc3ccccc3C2)cc1OCCc1ccccc1F [Example 177, 2-{3-[2-(2-Fluoro-phenyl)-ethoxy]-4-methyl-benzoylamino}-indane-2-carboxylic acid]
53 | 1000 to 30000 nM | CCOc1ccc(C(=O)NC2(C(=O)O)Cc3ccccc3C2)cc1NCCc1cccc(C)c1 [Example 178, 2-[4-Ethoxy-3-(2-m-tolyl-ethylamino)-benzoylamino]-indane-2-carboxylic acid]
54 | 100 to 1000 nM | Cc1cccc(CCNc2cc(C(=O)NC3(C(=O)O)Cc4ccccc4C3)ccc2O)c1 [Example 179, 2-[4-Hydroxy-3-(2-m-tolyl-ethylamino)-benzoylamino]-indane-2-carboxylic acid]
55 | < 100 nM | COc1ccc(C(=O)NC2(C(=O)O)Cc3ccccc3C2)cc1SCCc1cccc(C)c1 [Example 180, 2-[4-Methoxy-3-(2-m-tolyl-ethylsulfanyl)-benzoylamino]-indane-2-carboxylic acid]
